From ChEMBL document CHEMBL1150984, “2,4,5- triarylimidazole inhibitors of IL-1 biosynthesis” (Bioorg Med Chem Lett, 1995)

Target: T1, Polyunsaturated fatty acid 5-lipoxygenase (Rattus norvegicus, UniProt P12527)
T1 sequence (P12527 whole entry): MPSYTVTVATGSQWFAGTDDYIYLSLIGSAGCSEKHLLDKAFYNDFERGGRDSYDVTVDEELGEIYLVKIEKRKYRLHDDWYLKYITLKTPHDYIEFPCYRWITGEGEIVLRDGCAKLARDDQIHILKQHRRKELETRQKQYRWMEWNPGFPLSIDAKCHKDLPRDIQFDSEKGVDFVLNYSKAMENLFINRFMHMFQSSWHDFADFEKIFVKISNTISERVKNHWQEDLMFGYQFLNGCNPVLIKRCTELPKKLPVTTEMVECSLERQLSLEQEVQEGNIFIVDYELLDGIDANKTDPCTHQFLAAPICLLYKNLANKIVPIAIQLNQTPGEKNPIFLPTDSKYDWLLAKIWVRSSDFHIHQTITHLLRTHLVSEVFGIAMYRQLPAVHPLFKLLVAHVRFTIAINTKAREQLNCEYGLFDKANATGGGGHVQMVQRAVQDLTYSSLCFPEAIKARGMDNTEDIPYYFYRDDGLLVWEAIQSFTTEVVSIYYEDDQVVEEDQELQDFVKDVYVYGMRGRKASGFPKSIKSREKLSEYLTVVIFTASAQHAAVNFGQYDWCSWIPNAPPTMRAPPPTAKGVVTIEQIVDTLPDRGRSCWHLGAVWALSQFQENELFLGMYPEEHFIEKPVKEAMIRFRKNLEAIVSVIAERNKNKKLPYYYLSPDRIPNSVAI
Experiment: biochemical
Type: cell-based, RBL-1
Description: Inhibitory activity against 5-lipoxygenase enzyme from RBL-1 cells

| SMILES | IC50 |
| --- | --- |
| CN(C)c1ccc(-c2nc(-c3ccc(F)cc3)c(-c3ccncc3)[nH]2)cc1 | 5.6 µM |
| Oc1ccccc1-c1nc(-c2ccc(F)cc2)c(-c2ccncc2)[nH]1 | 4.1 µM |
| C[S+]([O-])c1ccc(-c2nc(-c3ccc(F)cc3)c(-c3ccnc4ccccc34)[nH]2)cc1 (stereo unspecified) | 7.2 µM |
| CN(Cc1ccccc1)Cc1ccc(-c2nc(-c3ccncc3)c(-c3ccc(F)cc3)[nH]2)cc1 | 0.8 µM |
| CC1(C)NC(c2ccc(-c3nc(-c4ccc(F)cc4)c(-c4ccncc4)[nH]3)cc2)=NO1 | 7.2 µM |
| N#CN=C(N)Cc1ccc(-c2nc(-c3ccncc3)c(-c3ccc(F)cc3)[nH]2)cc1 | 3.8 µM |
